The results in this text go back to ChEMBL document CHEMBL4190319, “Piperlongumine B and analogs are promising and selective inhibitors for acetylcholinesterase” (Eur J Med Chem, 2017).

For series [1], the target named is T1, Acetylcholinesterase (Electrophorus electricus, UniProt O42275). Briefly: Competitive inhibition of electric eel AChE assessed as inhibition constant for enzyme inhibitor complex preincubated for 20 mins followed by acetylthiocholine iodide substrate addition and measured for 30 mins at 1 min intervals by Ellman's method.
The subject of series [2] is HT-29. Briefly: Cytotoxicity against human HT-29 cells assessed as cell survival at 60 uM after 96 hrs by sulforhodamine B assay relative to control. The series is classed as functional. The settings on record: HT-29, 96 h, read-out: Survival. (In general: In SRB staining, fixed cells bind dye roughly in proportion to their protein.)
The subject of series [3] is SW-1736. Briefly: Cytotoxicity against human SW1736 cells assessed as cell survival at 60 uM after 96 hrs by sulforhodamine B assay relative to control. The series is classed as functional. To be noted: SW-1736, 96 h, read-out: Survival.
Series [4] can be described thus: Cytotoxicity against mouse NIH/3T3 cells assessed as cell survival at 60 uM after 96 hrs by sulforhodamine B assay relative to control. To be noted: read-out: Survival. The series is classed as cell-based, NIH3T3.
The test system of series [5] is FaDu. Briefly: Cytotoxicity against human FADU cells assessed as cell survival at 60 uM after 96 hrs by sulforhodamine B assay relative to control. Type of series: functional. The settings on record: read-out: Survival.
Series [6] has as its system MCF7. Briefly: Cytotoxicity against human MCF7 cells assessed as cell survival at 60 uM after 96 hrs by sulforhodamine B assay relative to control. The series is classed as functional. The settings on record: MCF7, 96 h, read-out: Survival.
The subject of series [7] is A253 cell line. Put plainly: Cytotoxicity against human A253 cells assessed as cell survival at 60 uM after 96 hrs by sulforhodamine B assay relative to control. The series is classed as functional. To be noted: A253, 96 h, read-out: Survival.
Series [8] concerns the target T1, Acetylcholinesterase. Put plainly: Competitive inhibition of electric eel AChE assessed as inhibition constant for enzyme-substrate-inhibitor complex preincubated for 20 mins followed by acetylthiocholine iodide substrate addition and measured for 30 mins at 1 min intervals by Ellman's method. For orientation: In Ellman's method for cholinesterases, released thiocholine reacts with DTNB.

The nature of series [9]: Solubility of the compound in DMSO. Type of series: physicochemical.
Series [10] has as its system HT-29. Put plainly: Cytotoxicity against human HT-29 cells assessed as cell survival at 40 uM after 96 hrs by sulforhodamine B assay relative to control. The settings on record: HT-29, 96 h, read-out: Survival. The series is classed as functional.
Series [11] has as its system A253 cell line. Put plainly: Cytotoxicity against human A253 cells assessed as cell survival at 40 uM after 96 hrs by sulforhodamine B assay relative to control. The series is classed as functional. The settings on record: A253, 96 h, read-out: Survival.
Series [12] deals with FaDu. Put plainly: Cytotoxicity against human FADU cells assessed as cell survival at 40 uM after 96 hrs by sulforhodamine B assay relative to control. Type of series: functional. To be noted: read-out: Survival.
In series [13] the test system is SW-1736. Put plainly: Cytotoxicity against human SW1736 cells assessed as cell survival at 40 uM after 96 hrs by sulforhodamine B assay relative to control. Type of series: functional. The settings on record: SW-1736, 96 h, read-out: Survival.
The nature of series [14]: Cytotoxicity against mouse NIH/3T3 cells assessed as cell survival at 40 uM after 96 hrs by sulforhodamine B assay relative to control. Type of series: cell-based, NIH3T3. To be noted: read-out: Survival.
In series [15] the test system is MCF7. Put plainly: Cytotoxicity against human MCF7 cells assessed as cell survival at 40 uM after 96 hrs by sulforhodamine B assay relative to control. Type of series: functional. The settings on record: MCF7, 96 h, read-out: Survival.

T1 sequence (O42275 whole entry): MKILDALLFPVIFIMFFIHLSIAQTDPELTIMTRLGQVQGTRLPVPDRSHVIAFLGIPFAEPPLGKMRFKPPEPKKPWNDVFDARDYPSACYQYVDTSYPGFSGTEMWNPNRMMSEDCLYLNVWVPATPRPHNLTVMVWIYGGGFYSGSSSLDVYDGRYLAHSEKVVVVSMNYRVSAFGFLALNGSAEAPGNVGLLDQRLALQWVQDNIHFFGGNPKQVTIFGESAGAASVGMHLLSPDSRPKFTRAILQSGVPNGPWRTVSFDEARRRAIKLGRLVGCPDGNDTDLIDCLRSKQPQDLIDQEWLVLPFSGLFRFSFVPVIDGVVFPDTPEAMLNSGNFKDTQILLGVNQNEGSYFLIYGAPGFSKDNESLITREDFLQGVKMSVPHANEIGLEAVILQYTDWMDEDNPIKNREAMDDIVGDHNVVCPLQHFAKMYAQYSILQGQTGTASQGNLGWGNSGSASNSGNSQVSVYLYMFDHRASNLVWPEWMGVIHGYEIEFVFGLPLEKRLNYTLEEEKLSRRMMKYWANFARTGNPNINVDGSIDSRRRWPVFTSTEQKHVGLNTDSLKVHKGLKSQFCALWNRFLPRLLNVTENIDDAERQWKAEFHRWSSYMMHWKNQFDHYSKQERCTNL

In general, Ki refers to the dissociation constant of the complex between target and ligand, obtained from inhibition or displacement. As to `CCCCCCCCCCC/C=C/C(=O)N1CCCCCC1`, the values for the Ki in series [1] and in series [8] were 9.99 µM and 45.4 µM, respectively. Also, the viability at 60 µM in [2] is 57%; in series [3], 80%; in [5], 85%; in series [6] it was 35%; in [7], 63%. Besides, in [4], the viability at 96 h, 60 µM was 63%.
Consider `CCCCCCCCCCCCCCC/C=C/C(=O)N1CCCCC1`, for which the solubility entry in series [9] was “Insoluble”.
Consider `CCCCCCCCCCCCC/C=C/C(=O)N1CCCC1`, for which the viability at 40 µM in [10] turned out to be 24%; in [11], 44%; in [12], 79%; in series [13], 42%; in [15] it was 24%. In addition, the viability at 96 h, 40 µM in series [14] was 60%.
Take `CCCCCCCCCCCCC/C=C/C(=O)N1CCC1`: the viability at 40 µM is 71% in series [10]; 69% in [11]; 96% in [12]; 88% in [13]; 62% in series [15]. For the same compound, the viability at 96 h, 40 µM in series [14] came out at 92%.
As for `CCCCCCCCCCC/C=C/C(=O)N1CCCCC1`, the viability at 40 µM in series [10] came out at 68%; in [11], 67%; in series [12], 97%; in series [13], 63%; in [15], 51%. The viability at 96 h, 40 µM in [14] was 74%.
Turning to `CCCCCCCCCCCCCCCCC/C=C/C(=O)N1CCCCC1`, the solubility entry in [9] is given as “Insoluble”.
Turning to `CCCCCCCCCCC/C=C/C(=O)N1CCC1`, the viability at 60 µM came to 84% in series [2]; 89% in series [3]; 95% in series [5]; 59% in series [6]; 77% in series [7]. Further, in series [4], the viability at 96 h, 60 µM stood at 80%.
On to `CCCCCCCCCCCCC/C=C/C(=O)N1CCCCCCC1`, for which the viability at 40 µM was 15% in series [10]; 40% in [11]; 61% in [12]; 43% in series [13]; 27% in series [15]. The figures for the Ki in [1] and in series [8] were 2.04 µM and 23.3 µM, respectively. The viability at 96 h, 40 µM in series [14] came to 50%.
As for `CCCCCCCCCCCCCCCCC/C=C/C(=O)N1CCCC1`, the solubility entry in series [9] was “Insoluble”.
With `CCCCCCCCCCCCCCC/C=C/C(=O)N1CCCCCCC1`, the Ki in [1] was 5.09 µM; in [8], above 50 µM. The viability at 60 µM amounted to 69% in series [2]; 81% in series [3]; 93% in series [5]; 83% in series [6]; 80% in [7]. Also, the viability at 96 h, 60 µM in series [4] was 75%.
As for `CCCCCCCCCCC/C=C/C(=O)N1CCCCCCC1`, the inhibition constant Ki was 6.83 µM in series [1] and 23 µM in series [8]. Besides, the viability at 60 µM came out at 52% in series [2]; 76% in series [3]; 84% in series [5]; 40% in series [6]; 57% in [7]. Moreover, the viability at 96 h, 60 µM in series [4] is 70%.
As for `CCCCCCCCCCCCCCC/C=C/C(=O)N1CCCC1`, in series [9], the solubility entry is on record as “Insoluble”.
In the case of `CCCCCCCCCCC/C=C/C(=O)N1CCCC1`, the viability at 60 µM in series [2] worked out at 86%; in [3], 99%; in [5], 96%; in [6], 69%; in [7], 86%. Further, the viability at 96 h, 60 µM in series [4] was determined as 78%.
As to `CCCCCCCCCCCCCCCCC/C=C/C(=O)N1CCCCCC1`, the solubility result in series [9] is listed as “Insoluble”.
Take `CCCCCCCCCCCCC/C=C/C(=O)N1CCCCC1`: the viability at 40 µM turned out to be 47% in series [10]; 57% in series [11]; 90% in [12]; 77% in series [13]; 40% in [15]. Besides, the Ki is 7.45 µM in series [1] and above 50 µM in series [8]. The viability at 96 h, 40 µM in series [14] was 80%.
Consider `CCCCCCCCCCCCCCC/C=C/C(=O)N1CCC1`, for which the solubility result in series [9] is reported as “Insoluble”.
Same read-out and setting: the value for `CCCCCCCCCCCCCCCCC/C=C/C(=O)N1CCCCCCC1` was “Insoluble”; that for `CCCCCCCCCCCCCCCCC/C=C/C(=O)N1CCC1` was “Insoluble”.
As to `CCCCCCCCCCCCCCC/C=C/C(=O)N1CCCCCC1`, the Ki in series [1] stood at 3.16 µM; in series [8] it was 41.5 µM. Further, the viability at 60 µM was 76% in series [2]; 86% in series [3]; 94% in [5]; 75% in series [6]; 88% in series [7]. Also, the viability at 96 h, 60 µM in [4] stood at 74%.
Take `CCCCCCCCCCCCC/C=C/C(=O)N1CCCCCC1`: the viability at 40 µM in [10] turned out to be 22%; in series [11] it was 46%; in [12] it was 77%; in series [13], 61%; in series [15] it was 27%. Moreover, the Ki in series [1] worked out at 3.41 µM; in [8], 81.9 µM. Moreover, in series [14], the viability at 96 h, 40 µM was determined as 69%.
